# Test results published in US9375496B2, “Halogenated compounds for cancer imaging and treatment and methods for their use” (The University of British Columbia, priority 2013, dated 2016).
# Legend:
# recombinant LBD of PR = molecular target: T1, recombinant LBD of PR (Homo sapiens, UniProt P06401); test: Competitive ligand-binding assay (fluorescent polarization), recombinant PR LBD; details: 1 nM fluorescently labeled ligand, 5 h incubation, serial dilution
# T1 sequence (P06401 679-913 limits assumed): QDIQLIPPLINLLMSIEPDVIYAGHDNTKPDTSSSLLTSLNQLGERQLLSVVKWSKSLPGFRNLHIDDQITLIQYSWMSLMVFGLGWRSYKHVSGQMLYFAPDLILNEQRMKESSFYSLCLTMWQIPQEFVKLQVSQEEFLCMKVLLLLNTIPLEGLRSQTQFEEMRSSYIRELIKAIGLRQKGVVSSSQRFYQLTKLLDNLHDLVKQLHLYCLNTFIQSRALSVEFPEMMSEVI
# Protocol: Competitive ligand-binding assays to detect the displacement of fluorescently labeled ligand from recombinant LBDs (ligand binding domains) of AR, PR, GR and estrogen receptor (ER) by R1881, MDV3100, Z (also referred to as EPI-002 or EPI) or 8d (also referred to as iodinated EPI) were performed. FIGS. 14A-14E display competitive ligand-binding curves to indicate whether R1881, Z, antiandrogens (enzalutamide, hydroxyflutamide, bicalutamide) or 8d can displace 1 nM fluorescently labeled cognant ligand from recombinant LBDs of steroid hormone receptors by using fluorescent polarization (mP). Serial dilution was performed for each test compound. Mixtures were incubated for 5 h before measurement of fluorescent polarization.
# [1] = molecular target: T2, glucocorticoid receptor (GR) (Homo sapiens, UniProt P04150); test: GRE-luciferase reporter assay in LNCaP cells cotransfected with full-length human GR; type: cell-based; details: 1.9 μM 8d, 10 nM dexamethasone, 48 h, LNCaP cells (FIG. 2C)
# T2 construct: expression plasmids for full-length human GR; expressed in transfected cells; host or cells: LNCaP
# T2 sequence (P04150 1-777): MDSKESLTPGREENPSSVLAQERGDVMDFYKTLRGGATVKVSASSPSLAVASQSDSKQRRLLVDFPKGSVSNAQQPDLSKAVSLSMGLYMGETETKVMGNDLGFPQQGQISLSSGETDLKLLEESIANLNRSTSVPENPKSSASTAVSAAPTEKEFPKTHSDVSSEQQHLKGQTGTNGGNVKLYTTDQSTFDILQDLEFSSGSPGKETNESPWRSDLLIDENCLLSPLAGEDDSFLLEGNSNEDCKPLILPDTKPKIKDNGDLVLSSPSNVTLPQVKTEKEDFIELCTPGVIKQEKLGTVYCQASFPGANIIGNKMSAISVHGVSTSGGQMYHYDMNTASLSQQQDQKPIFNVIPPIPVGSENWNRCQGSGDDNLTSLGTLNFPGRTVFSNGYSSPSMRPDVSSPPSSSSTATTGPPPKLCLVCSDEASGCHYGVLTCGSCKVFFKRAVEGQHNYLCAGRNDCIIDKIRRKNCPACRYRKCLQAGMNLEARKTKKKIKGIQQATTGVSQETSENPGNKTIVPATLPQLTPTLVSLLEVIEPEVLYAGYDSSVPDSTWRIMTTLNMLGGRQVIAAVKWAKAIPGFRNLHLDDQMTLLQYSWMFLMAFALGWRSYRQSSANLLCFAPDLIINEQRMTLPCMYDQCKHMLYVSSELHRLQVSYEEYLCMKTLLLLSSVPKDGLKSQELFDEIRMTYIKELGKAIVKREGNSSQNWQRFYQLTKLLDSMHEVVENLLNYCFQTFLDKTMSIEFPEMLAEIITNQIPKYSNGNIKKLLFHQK
# Protocol: To assess specificity for the AR, parallel experiments were performed in LNCaP cells with endogenous AR and ectopic expression of other closely related human hormone receptors such as the progesterone receptor-beta (PRβ), glucocorticoid receptor (GR) and estrogen receptor-α (ER).
smiles,measurement,setting,value
"CC(C)(c1ccc(OC[C@H](O)CO)cc1)c1ccc(OC[C@H](O)CCl)c(I)c1 [Compound 8d, (R)-3-(4-(2-(4-((S)-3-chloro-2-hydroxypropoxy)-3-iodophenyl)propan-2-yl)phenoxy)propane-1,2-diol]",binding to LBD of PR (displacement of fluorescently labeled ligand),recombinant LBD of PR,does not bind
same,GR activity (GRE-luciferase),[1],not inhibited
